Results as given in US7550451B2, “Progesterone receptor modulators with increased antigonadotropic activity for female birth control and hormone replacement therapy” (Bayer Schering Pharma AG, priority 2002, dated 2009).

How the values were obtained:
[1] = biological target: T1, Progesterone receptor (Oryctolagus cuniculus, UniProt P06186); assay: Receptor binding affinity, progesterone receptor (competitive binding, 3H-ORG 2058); settings: Progesterone = 100%; uterus cytosol of estradiol-primed rabbit
T1 construct: Uterus cytosol of the estradiol-primed rabbit; from tissue; host or cells: uterus cytosol of estradiol-primed rabbit
T1 sequence (P06186 1-930): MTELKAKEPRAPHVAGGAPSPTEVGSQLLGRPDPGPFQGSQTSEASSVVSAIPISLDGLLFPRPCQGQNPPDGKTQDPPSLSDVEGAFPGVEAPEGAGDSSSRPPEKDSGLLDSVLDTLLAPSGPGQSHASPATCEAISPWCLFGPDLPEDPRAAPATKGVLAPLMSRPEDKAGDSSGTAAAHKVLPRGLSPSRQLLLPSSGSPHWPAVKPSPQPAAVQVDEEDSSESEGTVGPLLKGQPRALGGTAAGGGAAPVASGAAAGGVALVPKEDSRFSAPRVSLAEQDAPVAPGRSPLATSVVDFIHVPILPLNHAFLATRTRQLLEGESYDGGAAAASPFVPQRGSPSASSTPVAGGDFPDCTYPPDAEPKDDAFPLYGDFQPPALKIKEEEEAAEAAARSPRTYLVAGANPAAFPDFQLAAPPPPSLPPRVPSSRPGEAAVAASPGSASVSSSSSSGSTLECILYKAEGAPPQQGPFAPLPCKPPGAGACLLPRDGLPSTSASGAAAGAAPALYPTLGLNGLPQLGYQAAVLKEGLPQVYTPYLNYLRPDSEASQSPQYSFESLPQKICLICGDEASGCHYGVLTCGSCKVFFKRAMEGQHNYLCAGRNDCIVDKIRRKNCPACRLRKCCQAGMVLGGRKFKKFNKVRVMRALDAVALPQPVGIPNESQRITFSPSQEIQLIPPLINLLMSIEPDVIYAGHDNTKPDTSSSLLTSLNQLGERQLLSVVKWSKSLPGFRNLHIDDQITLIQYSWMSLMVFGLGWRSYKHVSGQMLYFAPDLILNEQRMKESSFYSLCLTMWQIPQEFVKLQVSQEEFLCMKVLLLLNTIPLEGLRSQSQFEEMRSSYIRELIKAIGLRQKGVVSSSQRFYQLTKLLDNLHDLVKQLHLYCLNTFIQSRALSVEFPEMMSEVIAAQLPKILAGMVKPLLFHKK
Method: (§1) The receptor binding affinity was determined by competitive binding of a specifically binding ^3H-labeled hormone (tracer) and the compound to be tested on receptors in the cytosol from animal target organs. In this case, receptor saturation and reaction equilibrium were sought.
(§2) The tracers and increasing concentrations of the compound to be tested (competitor) were co-incubated with the receptor-containing cytosol fraction at 0-4° C. over 18 hours. After separation of the unbonded tracer with carbon-dextran suspension, the receptor-bonded tracer portion was measured for each concentration, and the IC50 was determined from the concentration sequence. As a quotient of the IC50 values of the reference substance and the compound to be tested (×100%), the relative molar binding affinity (RBA) was calculated (RBA of the reference substance=100%).
Uterus cytosol of the estradiol-primed rabbit; homogenized in TED buffer (20 mmol of Tris/HCl, pH 7.4; 1 mmol of ethylenediamine tetraacetate, 2 mmol of dithiothreitol) with 250 mmol of saccharose; stored at −30° C. Tracer: ^3H-ORG 2058, 5 nmol; reference substance: progesterone.

[2] = biological target: T2, Glucocorticoid receptor (Rattus norvegicus, UniProt P06536); assay: Receptor binding affinity, glucocorticoid receptor (competitive binding, 3H-dexamethasone); settings: Dexamethasone = 100%; thymus cytosol of adrenalectomized rat
T2 construct: Thymus cytosol of the adrenalectomized rat; from tissue; host or cells: thymus cytosol of adrenalectomized rat
T2 sequence (P06536 1-795): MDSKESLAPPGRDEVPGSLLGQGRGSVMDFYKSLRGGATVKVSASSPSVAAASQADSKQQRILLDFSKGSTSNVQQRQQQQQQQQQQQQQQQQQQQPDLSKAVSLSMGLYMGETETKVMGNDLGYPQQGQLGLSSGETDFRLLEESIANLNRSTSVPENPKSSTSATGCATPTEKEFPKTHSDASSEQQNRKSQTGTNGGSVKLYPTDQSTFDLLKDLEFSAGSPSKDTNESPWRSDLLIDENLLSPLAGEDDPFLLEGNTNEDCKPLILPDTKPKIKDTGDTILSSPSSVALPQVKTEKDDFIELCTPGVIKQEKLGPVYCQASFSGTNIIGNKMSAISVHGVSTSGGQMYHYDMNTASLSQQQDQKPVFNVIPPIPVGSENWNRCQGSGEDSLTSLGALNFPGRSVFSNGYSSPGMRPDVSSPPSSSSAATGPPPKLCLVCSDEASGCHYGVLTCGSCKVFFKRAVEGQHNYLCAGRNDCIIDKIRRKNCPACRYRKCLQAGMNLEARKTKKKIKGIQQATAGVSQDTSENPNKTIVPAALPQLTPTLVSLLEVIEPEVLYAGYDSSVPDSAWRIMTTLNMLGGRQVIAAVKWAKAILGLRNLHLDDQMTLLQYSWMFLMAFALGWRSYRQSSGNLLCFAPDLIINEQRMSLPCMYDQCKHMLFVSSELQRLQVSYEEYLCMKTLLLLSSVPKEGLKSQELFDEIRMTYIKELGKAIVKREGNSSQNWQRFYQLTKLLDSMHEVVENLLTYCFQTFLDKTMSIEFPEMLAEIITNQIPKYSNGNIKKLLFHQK
Method: as §1, §2
Thymus cytosol of the adrenalectomized rat, thymi stored at −30° C.; buffer: TED. Tracer: ^3H-Dexamethasone, 20 nmol; reference substance: dexamethasone.

[3] = biological target: T3, Androgen receptor (Rattus norvegicus, UniProt P15207); assay: Receptor binding affinity, androgen receptor (competitive binding, 3H-metribolone); settings: prostate cytosol of castrated rat; for AR relative molar binding affinity (RBA) a) against RU 1881: reference RU 1881 (metribolone); for AR relative molar binding affinity (RBA) b) against dihydrotestosterone (DHT): reference dihydrotestosterone
T3 construct: Prostate cytosol of the castrated rat; from tissue; host or cells: prostate cytosol of castrated rat
T3 sequence (P15207 1-902): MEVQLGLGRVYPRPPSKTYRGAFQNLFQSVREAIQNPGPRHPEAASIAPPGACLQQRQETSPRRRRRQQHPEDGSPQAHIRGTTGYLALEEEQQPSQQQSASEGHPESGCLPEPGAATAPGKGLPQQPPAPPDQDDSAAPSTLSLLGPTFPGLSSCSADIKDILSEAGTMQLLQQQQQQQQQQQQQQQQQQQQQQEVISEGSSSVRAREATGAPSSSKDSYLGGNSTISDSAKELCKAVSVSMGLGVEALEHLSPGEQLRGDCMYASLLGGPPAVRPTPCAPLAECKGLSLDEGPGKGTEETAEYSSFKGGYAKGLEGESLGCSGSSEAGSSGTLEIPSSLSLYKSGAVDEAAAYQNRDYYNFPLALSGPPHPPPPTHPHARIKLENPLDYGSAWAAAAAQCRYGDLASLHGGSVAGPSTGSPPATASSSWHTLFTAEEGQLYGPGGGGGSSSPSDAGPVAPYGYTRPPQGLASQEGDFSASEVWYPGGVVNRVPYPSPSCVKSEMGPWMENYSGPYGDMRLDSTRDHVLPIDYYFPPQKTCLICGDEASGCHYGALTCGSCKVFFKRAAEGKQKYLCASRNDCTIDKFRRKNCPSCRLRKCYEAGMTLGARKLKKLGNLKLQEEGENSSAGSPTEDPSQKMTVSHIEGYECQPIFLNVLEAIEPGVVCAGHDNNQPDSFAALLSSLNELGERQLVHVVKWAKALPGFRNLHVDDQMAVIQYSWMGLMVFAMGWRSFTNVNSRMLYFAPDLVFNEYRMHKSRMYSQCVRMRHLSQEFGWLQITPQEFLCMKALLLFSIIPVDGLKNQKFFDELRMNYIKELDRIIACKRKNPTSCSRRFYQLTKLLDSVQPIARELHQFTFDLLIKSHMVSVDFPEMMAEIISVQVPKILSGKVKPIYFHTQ
Method: as §1, §2
Prostate cytosol of the castrated rat; prostates stored at −30° C.; buffer: TED with 10% glycerol as well as 2 μmol of triamcinolone acetonide. Tracer: ^3H-metribolone 4 nmol; reference substances: metribolone (RU 1881) or 5α-dihydrotestosterone.

`CC12CC(c3ccc(C=NO)cc3)C3=C4CCC(=O)C(Br)=C4CCC3C1CCC2(O)C(F)(F)F` (stereo not drawn) [Example 8, 4-(4′-Bromo-17β-hydroxy-17α-trifluoromethyl-3-oxoestra-4,9-dien-11β-yl)benzaldehyde-1(E)-oxime] was tested, and the “PR relative molar binding affinity (RBA)” value [1] was 87%, the “GR relative molar binding affinity (RBA)” value [2] was 1.8% and the “AR relative molar binding affinity (RBA) a) against RU 1881” value [3] was “a) 7.8%”. For the same compound, the “AR relative molar binding affinity (RBA) b) against dihydrotestosterone (DHT)” value (“AR relative molar binding affinity … (DHT)” below) [3] was “b) 11.8%”.

For `CC(=O)O/N=C/c1ccc([C@H]2C[C@]3(C)[C@@H](OC(C)=O)CC[C@H]3[C@@H]3CCC4=C(Br)C(=O)CCC4=C32)cc1` [Example 14, 4-(17β-Acetoxy-4′-bromo-3-oxoestra-4,9-dien-11β-yl)benzaldehyde-1-(E)-O-acetyloxime], the “PR relative molar binding affinity (RBA)” value [1] was 23%, the “GR relative molar binding affinity (RBA)” value [2] was 0.3% and the “AR relative molar binding affinity (RBA) a) against RU 1881” value [3] was “a) 6%”. The “AR relative molar binding affinity … (DHT)” value [3] was “b) 10%”.

In the case of `CC12CC(c3ccc(C=NO)cc3)C3=C4CCC(=O)C=C4CCC3C1C=CC2O` (stereo not drawn) [Example 12, 4-(17β-Hydroxy-3-oxoestra-4,9,15-trien-11β-yl)benzaldehyde-1(E)-oxime], the “PR relative molar binding affinity (RBA)” value [1] is reported as 38%, the “GR relative molar binding affinity (RBA)” value [2] is reported as 5% and the “AR relative molar binding affinity (RBA) a) against RU 1881” value [3] is reported as “a) 22%”. For the same compound, the “AR relative molar binding affinity … (DHT)” value [3] was “b) 34%”.

With `CCNC(=O)O/N=C/c1ccc([C@H]2C[C@@]3(C)[C@@H](CC[C@]3(C)O)[C@@H]3CCC4=CC(=O)CCC4=C32)cc1` [Example 9, 4-[17β-Hydroxy-17α-methyl-3-oxoestra-4,9-dien-11β-yl]benzaldehyde-1-(E)-[O-(ethylamino)-carbonyl]oxime] the “PR relative molar binding affinity (RBA)” value [1] was 161%, the “GR relative molar binding affinity (RBA)” value [2] was 25% and the “AR relative molar binding affinity (RBA) a) against RU 1881” value [3] was “a) 15%”. The “AR relative molar binding affinity … (DHT)” value [3] was “b) 23%”.

`CCO[C@H]1CC[C@H]2[C@@H]3CCC4=CC(=O)CCC4=C3[C@@H](c3ccc(/C=N/O)cc3)C[C@]12C` [Example 15, 4-(17β-Ethoxy-3-oxoestra-4,9-dien-11β-yl)benzaldehyde-1(E)-oxime] was tested, and the “PR relative molar binding affinity (RBA)” value [1] was 143%, the “GR relative molar binding affinity (RBA)” value [2] was 17% and the “AR relative molar binding affinity (RBA) a) against RU 1881” value [3] was “a) 13%”. For the same compound, the “AR relative molar binding affinity … (DHT)” value [3] was “b) 21%”.

`CCNC(=O)O[C@H]1CC[C@H]2[C@@H]3CCC4=CC(=O)CCC4=C3[C@@H](c3ccc(/C=N/O)cc3)C[C@]12C` [Example 4, 4-[17β-(N-Ethylamino)carbonyloxy-3-oxoestra-4,9-dien-11β-yl]benzaldehyde-1(E)-oxime] was tested, and the “PR relative molar binding affinity (RBA)” value [1] was 13%, the “GR relative molar binding affinity (RBA)” value [2] was 11% and the “AR relative molar binding affinity (RBA) a) against RU 1881” value [3] was “a) 2.9%”. For the same compound, the “AR relative molar binding affinity … (DHT)” value [3] was “b) 4.5%”.

`CCNC(=O)O/N=C/c1ccc([C@H]2C[C@]3(C)[C@@H](O)CC[C@H]3[C@@H]3CCC4=CC(=O)CCC4=C32)cc1` [Example 11, 4-[17β-Hydroxy-3-oxoestra-4,9-dien-11β-yl]benzaldehyde-1-(E)-[O-(ethylamino)-carbonyl]oxime] was tested, and the “PR relative molar binding affinity (RBA)” value [1] was 34%, the “GR relative molar binding affinity (RBA)” value [2] was 10% and the “AR relative molar binding affinity (RBA) a) against RU 1881” value [3] was “a) 10%”. For the same compound, the “AR relative molar binding affinity … (DHT)” value [3] was “b) 15%”.

For `C[C@]12C[C@H](c3ccc(/C=N/O)cc3)C3=C4CCC(=O)C=C4CC[C@H]3[C@@H]1CC[C@@H]2OC(=O)c1ccccc1` [Example 16], the “PR relative molar binding affinity (RBA)” value [1] was 8%, the “GR relative molar binding affinity (RBA)” value [2] was 3% and the “AR relative molar binding affinity (RBA) a) against RU 1881” value [3] was “a) 1.4%”. The “AR relative molar binding affinity … (DHT)” value [3] was “b) 2.2%”.

`CC12CC(c3ccc(C=NO)cc3)C3=C4CCC(=O)C=C4CCC3C1CCC2OCc1ccccc1` (stereo not drawn) [Example 17, 4-(17β-Benzyloxy-3-oxoestra-4,9-dien-11β-yl)benzaldehyde-1(E)-oxime] was tested, and the “PR relative molar binding affinity (RBA)” value [1] was 31%, the “GR relative molar binding affinity (RBA)” value [2] was 8% and the “AR relative molar binding affinity (RBA) a) against RU 1881” value [3] was “a) 2%”. The “AR relative molar binding affinity … (DHT)” value [3] was “b) 3%”.

`CC12CC(c3ccc(C=NO)cc3)C3=C4CCC(=O)C(Br)=C4CCC3C1CCC2O` (stereo not drawn) [Example 19, 4-(4′-Bromo-17β-hydroxy-3-oxoestra-4,9-dien-11β-yl)benzaldehyde-1(E)-oxime] was tested, and the “PR relative molar binding affinity (RBA)” value [1] was 51%, the “GR relative molar binding affinity (RBA)” value [2] was 0.5% and the “AR relative molar binding affinity (RBA) a) against RU 1881” value [3] was “a) 9%”. For the same compound, the “AR relative molar binding affinity … (DHT)” value [3] was “b) 16%”.

With `CC(=O)OC1CCC2C3CCC4=CC(=O)CCC4=C3C(c3ccc(C=NO)cc3)CC12C` (stereo not drawn) [Example 3, 4-(17β-Acetoxy-3-oxoestra-4,9-dien-11β-yl)benzaldehyde-1-(E)-oxime] the “PR relative molar binding affinity (RBA)” value [1] was 20% and the “GR relative molar binding affinity (RBA)” value [2] was 12%.
